The test system of assay [1] is ca/calmodulin dependent cGMP PDE from bovine aorta. Nature of the assay: Assay for inhibition of calcium/calmodulin dependent cGMP phosphodiesterase enzyme (Ca PDE). In kind it is biochemical. The settings on record: CaCl2 and calmodulin, averaged where multiple testing, read-out: Ca GMP PDE IC50. As for the experimental part: (§1) Phosphodiesterase enzymes were partially purified according to the procedures reported by Francis, S. H., and Corbin, J. D. (1988) in Methods in Enzymology, Vol. 159, pp. 722-729, Academic Press, New York and Bradford, M. M. in (1976) Anal. Biochem. 72, 248-254. Specifically, the purification was accomplished by chromatography of a bovine aorta extract on a DEAE Tris-acryl column. The eluted fractions were assayed for the various specific activities. The specific enzyme activities were pooled and concentrated. […] The cGMP-specific phosphodiesterase was assayed in the presence of 1 μM cGMP. The calcium/calmodulin dependent enzyme activity was assayed in the presence of 1 μM cGMP, 0.5 units calmodulin (Sigma P-0270, phosphodiesterase 3',5'-cyclic nucleotide activator from bovine heart) per ml of reaction, and 100 μM Ca^2+.
(§2) Enzyme assays were performed in Millipore 96-well polystyrene microtiter plates in a total assay volume of 100 μL of buffer containing 100 mM Tris-HCl and 5 mM MgSO4 at pH 7.5. cGMP PDE inhibitor compounds were dissolved in DMSO at a concentration of 10 mM and then diluted into the assay to give a final concentration of DMSO in the assay of 1% which has no effect on the enzymatic reaction. The reaction mixture consisted of 10 μL diluted inhibitor, 10 μL of a solution of the appropriate phosphodiesterase enzyme preparation, and 60 μL buffer. The reaction was initiated by the addition 20 μL of 5μM [3H]cGMP (100,000 DPM/well). The tritiated cGMP nucleotides were obtained from DuPont/New England Nuclear Lifesciences Company, Boston, Mass. as an ammonium salt (NET-554 guanosine 3',5'-cyclic phosphate, [8,5'-^3 H]).
(§3) After a 30 minute incubation at room temperature the reaction was stopped by the addition of 50 μL of 210 mM ZnSO4 followed by an addition of 50 μL of freshly prepared 19 mM Ba(OH)2 to specifically precipitate the radiolabled 5'-nucleotide product. The Zn--Ba precipitate was filtered onto glass-fiber filters mats (Wallac, Filtermat A, 102×258 mm) using an automated 96-well harvester (TOMTEC Harvester 96®, MACH II). The precipitate was washed from the microtiterplate to the filtermat with a total volume of 1 ml/well of a wash buffer containing 1 mM NaOH and 100 mM NaCl. The filtermat were dried in a microwave oven and placed in a Wallac sample bag for use with the 1205 BetaPlate™. 10 ml of Beta Plate Scint (LKB) was added to the bag and allowed to diffuse throughout the filter. The radiolabel was then quantitated using a LKB/Wallac 1205 BetaPlate™ scintillation counter. Inhibitor dilution curves were created using six concentrations of the inhibitor in duplicate. IC50 values were determined from a linear regression of a Log Logit transformation of the data. M&B 22,948 (2-o-propoxyphenyl-8-azapurin-6-one) was used as the standard control inhibitor for cGMP PDE and was prepared according to U.S. Pat. No. 3,819,631.
The procedure for the calcium/calmodulin dependent cGMP PDE assay was identical to the cGMP-specific phosphodiesterase assay described above, except for the following changes noted below. Partially purified ca/calmodulin dependent cGMP PDE enzyme from bovine aorta was collected as a pool based upon its elution relative to cAMP-dependent PDE and conformational changes introduced by the addition of 1 mM EDTA for 1 hour at 4° C. It was then diluted 1:1800 in assay buffer containing 143 μM CaCl2 and 0.7 units of calmodulin/ml and 70 μl of this enzyme solution was used per assay well. The standard control used was Vinpocetine purchased from Gedeon Richter LTD, Budapest, Hungary.

For assay [2], the target named is T1, cGMP-specific PDE from bovine aorta (Bos taurus, UniProt Q28156).
T1 construct: chromatography of a bovine aorta extract on a DEAE Tris-acryl column; from tissue; host or cells: bovine aorta
Nature of the assay: Assay for inhibition of cGMP PDE. The note with it: bovine aorta enzyme; 30 minute incubation at room temperature, pH 7.5; averaged where multiple testing. It is filed as biochemical. The procedure:
as §1
The partially purified cGMP-specific PDE from bovine aorta was stored as a concentrated solution in glycerol at 4° C. Prior to use it was diluted approximately 1:3000 with an assay buffer containing 100 mM Tris-HCl and 5 mM MgSO4 at pH 7.5 to give approximately 10% conversion of cGMP substrate to GMP in a 30 minute reaction time.
as §2, §3

The subject of assay [3] is cAMP PDE from bovine aorta. Nature of the assay: Assay for inhibition of cAMP PDE. In kind it is biochemical. The settings on record: bovine aorta enzyme; [3H]cAMP substrate; averaged where multiple testing. As for the experimental part: as §1, §2, §3
The procedure for the inhibition of cAMP PDE was identical to the procedure for the cGMP-specific phosphodiesterase assay above, except that partially purified cAMP PDE from bovine aorta was collected as pooled from the DEAE tris-acryl column based upon its elution relative to cGMP-specific PDE as well as its specificity for cAMP by hydrolysis and then used. The partially purified cAMP PDE was stored as a concentrated solution at 4° C. This enzyme was diluted 1:30 with an assay buffer prior to use. A substrate solution of [^3 H]cAMP was added to 5 μM adenosine 3', 5'-cyclic monophosphate sodium salt in assay buffer to give a solution with a specific activity of 1000 CPM/pmole (100,000 CPM/20 μl). The reaction was initiated by the addition 20 μL of 5 μM [3H]cAMP (100,000 DPM/well). The tritiated cAMP nucleotides were obtained from DuPont/New England Nuclear Lifesciences Company, Boston, Mass. as an ammonium salt (NET-275 adenosine 3',5'-cyclic phosphate, (2,8-^3 H]). Ro 20-1724 was used as the standard control (obtained from Hoffmann LaRoche, Nutley, N.J.).

The nature of assay [4]: In vivo blood pressure measurement in rats (femoral artery catheter). Also on record: species or system male Sprague Dawley rats. The settings on record: intraperitoneal injection. An excerpt:
The FIGURE is a plot of mean blood pressure (mmHg) versus time (min) for anesthetized male Sprague Dawley rats (Charles River Laboratories, Wilmington, Mass.) following administration of a cyclic GMP phosphodiesterase inhibitor of this in vention by intraperitoneal injection.
Polyethylene catheters (PE50) were inserted into the femoral artery and vein of anesthetized male Sprague Dawley rats (Charles River Laboratories,Wilmington, Mass.) in order to monitor the mean arterial pressure and administer test compounds. Following surgery, the animals were place in individual restraining cages and allowed to regain consciousness. Infusion of 0.9% sodium chloride via the femoral vein (0.07 ml/kg/min) was begun and continued throughout the study period. Observations were begun approximately 90 minutes after the initiation of infusion to allow the animals to fully regain consciousness. Blood pressure was continuously monitored via the femoral artery with a pressure transducer (type 041-500-503; Cobe, Lakewood, Colo.) connected to a Grass Model 7E polygraph. Mean arterial pressure and heart rates were recorded at 3 minute intervals by a computerized data acquisition system. Cyclic GMP phosphodiesterase inhibitor (Example 41) was administered as an intraperitoneal injection, alternatively the inhibitor could have been administered directly into the catheter as an intravenous bolus.

For assay [5] the following is noted: rats; McMahon et al. 1989; cited from earlier work.

Molecules are shown by their SMILES.

Turning to `c1ccc(Cn2c(-c3ccc4c(c3)OCO4)nc3ccccc32)cc1` [Example 25, 2-(1,3-Benzodioxol-5-yl)-1-phenylmethyl-1H-benzimidazole], the IC50 in assay [1] was 75 µM; in assay [2] it was 0.011 µM; in assay [3] it was 12.4 µM.
Taken in the same sequence, the figures for `c1ccc2cc(Cn3c(-c4ccc5c(c4)OCO5)nc4ccccc43)ccc2c1` [Example 29, 2-(1,3-Benzodioxol-5-yl)-1-(2-naphthalenylmethyl)-1H-benzimidazole] were 60 µM, 0.024 µM and 5.2 µM.
Consider `Fc1ccccc1Cn1c(-c2ccc3c(c2)OCO3)nc2ccccc21` [Example 30, 2-(1,3-Benzodioxol-5-yl)-1-(2-fluorophenylmethyl)-1H-benzimidazole], for which the IC50 in assay [1] was more than 100 µM; in assay [2], 0.004 µM; in assay [3], more than 100 µM.
In the case of `c1ccc2c(c1)nc(-c1ccc3c(c1)OCO3)n2Cc1ccc2c(c1)OCO2` [Example 41, 2-(1,3-Benzodioxol-5-yl)-1-[(1,3-benzodioxol-5-yl)methyl]-1H-benzimidazole], in assay [4], the “reduction in blood pressure” value is listed as “A reduction in blood pressure was observed”. The IC50 stood at 64.5 µM in assay [1], 0.003 µM in assay [2] and 11.9 µM in assay [3].
In the case of `Cc1ccc(-c2nc3ccccc3n2Cc2ccc3c(c2)OCO3)cc1` [Example 42, 1-[(1,3-benzodioxol-5-yl)methyl]-2-(4-methylphenyl)-1H-benzimidazole], the half-inhibitory concentration (IC50) amounted to 60 µM in assay [1], 0.009 µM in assay [2] and 18 µM in assay [3].
For `c1ccc(Cn2c(-c3ccc4c(c3)OCO4)nc3cccnc32)cc1` [Example 43, 2-(1,3-Benzodioxol-5-yl)-3-(phenylmethyl)-3H-imidazo[4,5-b]pyridine] the same measures were more than 100 µM, 0.003 µM and 7.3 µM.
Regarding `CCCOc1ccccc1-c1nc2[nH]nnc2c(=O)[nH]1` [M&B 22,948, 2-o-propoxyphenyl-8-azapurin-6-one], in assay [5], the mean arterial pressure entry is given as “dose-dependent reduction in the mean arterial pressure” and the “urinary cGMP (and not cAMP) levels” value was “increase in urinary cGMP (and not cAMP) levels”.

These data come from patent US6130333A, “Bicyclic imidazolyl derivatives as phosphodiesterase inhibitors, pharmaceutical compositions and method of use” (Monsanto Company, priority 1998, dated 2000).
